From patent publication US11976069B2, “Inhibitors of histone deacetylase useful for the treatment or prevention of HIV infection” (Merck Sharp & Dohme LLC, priority 2019, dated 2024)
Like-named read-outs stand apart in the source and are kept apart here.

Test system: KARN cells (Jurkat 2C4)
Experiment: KARN assay (luciferase induction)
Type: cell-based
Conditions: ~20 hr, 100% induction = 2 μM SAHA
Description: KARN cells (Jurkat 2C4) were licensed from the laboratory of Dr. John Kam, Case Western Reserve University, School of Medicine. […] An atmosphere of 5% CO2 and 90% humidity was used for all culture work. Cells were split and reseeded into T175 flasks at a density of 0.2×10^6 cells/ml, in 40 ml of media, every 3-4 days.
Day 1: After the 3-4 day growth period, the cells were transferred from the T175 flask to a 50 ml conical tube and gently pelleted at 1000 rpm for 5 minutes. […] These flasks were returned to the incubator.
Day 2: Cell Preparation: The next day, the cells were transferred from each T175 flask to an individual 50 ml conical tube and gently pelleted at 1000 rpm for 5 minutes. The cells were gently resuspended in assay media (30 ml) and pelleted again. […] The cells were counted using the ViCell (Beckman Coulter, Brea, Calif.) and diluted as necessary. A Multidrop (Combi, Thermo Scientific, Waltham, Mass.) with a sterile head was used to seed the cells into the wells of a 384-well solid black plate with lid (Perkin Elmer, Waltham, Mass., catalog number 6007660) at 4000 cells/30 μl/well for the 5% NHS assay media and 6000 cells/30 μl/well for 0.1% NHS assay. The plates were covered and returned to the incubator prior to compound addition.
Compound Preparation: Solutions of control inhibitor suberoylanilide hydroxamic acid (SAHA; Sigma, catalog number SML0061) and test compounds in 100% DMSO were titrated into 384-well polypropylene plates (Labcyte, San Jose, Calif., catalog number P-05525) using a 20-point dose response and 2-fold dilutions. The reference compounds, DMSO and SAHA were then added to the compound plate. Using the Access system (Labcyte), 120 nl of these inhibitor and control solutions were added to the individual wells of the plates containing the cells, and the plates were then returned to the incubator for ˜20 hr (range from 18-24 hr). The final high concentration for SAHA and the test compounds in the assays was 40 μM. The final DMSO concentration in all wells was 0.4%. The minimal induction reference compound used was DMSO and the maximal induction reference compound used was SAHA (2 μM final concentration in the assay).
Day 3: The luciferase detection reagent was prepared by transferring the contents of one bottle of Steady-Glo buffer to one bottle of Steady-Glo substrate (Steady-Glo Luciferase Assay System, Promega, Madison, […]., catalog number E2520), followed by gently mixing until the substrate was thoroughly dissolved and the solution was equilibrated to room temperature. The cell culture assay plates were removed from the incubator and brought to room temperature (15 min). The Steady-Glo Reagent was added to the plates (30 μl/well), which were then covered with a black lid and incubated for 10 minutes at room temperature. The plates were then read for luminescence on an Envision (Perkin Elmer) using the ultrasensitive mode (US LUM), […] and 384-well aperture. Luminescence counts in the DMSO reference wells were considered as 0% induction, while those in the 2 μM SAHA reference wells were considered as 100% induction. Dose response curves were plotted as test compound concentration (X-axis) vs. percent activation (Y-axis) using a 4-parameter fit based on the Levenberg-Marquardt algorithm.

[1] = Jurkat, read-out: Karn EC50 with 0.1% NHS, 0.1% normal human serum
[2] = Jurkat, read-out: Karn EC50 with 5% NHS, 5% normal human serum
[3] = read-out: Karn EC50 with 0.1% NHS, 0.1% normal human serum
[4] = read-out: Karn EC50 with 5% NHS, 5% normal human serum

Compound: CCC(=O)CCCCC[C@H](NC(=O)[C@H]1CC12CCN(CC)CC2)c1[nH]c2nc1C(=O)NCCC/C=C/c1cccc-2c1 [Compound 15, (1S)-6-ethyl-N-{(1S)-7-oxo-1-[(11E)-6-oxo-3,7,18-triazatricyclo[11.3.1.1~2,5~]octadeca-1(17),2(18),4,11,13,15-hexaen-4-yl]nonyl}-6-azaspiro[2.5]octane-1-carboxamide]
- EC50 [1]: 5.24 µM
- EC50 [2]: 19.3 µM

Compound: (11S,4S)-4-(6-oxooctyl)-61,62-dihydro-3-aza-5(2,5)-oxazola-6(6,1)-quinolina-12(4,1)-piperidina-1(1,2)-cyclopropanadodecaphane-62,2-dione [Compound 8]
- EC50 [3]: > 40 µM
- EC50 [4]: > 40 µM

Compound: CCC(=O)CCCCC[C@@H]1NC(=O)[C@H]2CC23CCN(CCCCCCCCn2ccc4cc(c(OC)cc4c2=O)-c2cnc1[nH]2)CC3 [Compound 5, (1^1S,4S)-6^7-methoxy-4-(6-oxooctyl)-6^1,6^2-dihydro-5^1H-3-aza-6(6,2)-isoquinolina-15(4,1)-piperidina-5(2,5)-imidazola-1(1,2)-cyclopropanapentadecaphane-6^1,2-dione]
- EC50 [1]: 0.011 µM
- EC50 [2]: 0.012 µM

Compound: CCC(=O)CCCCC[C@@H]1NC(=O)[C@H]2CC23CCN(CCCOCCCn2ccc4cc(ccc4c2=O)-c2cnc1[nH]2)CC3 [Compound 12, (3S,6S)-6-(6-oxooctyl)-22-oxa-5,8,18,26,33-pentaazahexacyclo[24.2.2.1˜7,10˜0.1˜11,15˜0.1˜14,18˜0.0˜1,3˜]tritriaconta-7,9,11(32),12,14,16-hexaene-4,31-dione]
- EC50 [1]: 1.79 µM
- EC50 [2]: 1.99 µM

Compound: CCC(=O)CCCCCC1NC(=O)C2CC2N2CCC(CCCCCn3c(=O)ccc4cc(ccc43)-c3cnc1o3)CC2 [Compound 7, (11S,4S)-4-(6-oxooctyl)-61,62-dihydro-3-aza-5(2,5)-oxazola-6(6,1)-quinolina-12(4,1)-piperidina-1(1,2)-cyclopropanadodecaphane-62,2-dione]
- EC50 [3]: 5.15 µM
- EC50 [4]: 4.73 µM
